The record followed here is ChEMBL document CHEMBL2057173, “Synthesis and SAR studies of bicyclic amine series GPR119 agonists” (Bioorg Med Chem Lett, 2012).

Structures are written as SMILES.

The target in assay [1] is T1, Glucose-dependent insulinotropic receptor (Homo sapiens) (UniProt Q8TDV5).
T1 sequence (whole entry): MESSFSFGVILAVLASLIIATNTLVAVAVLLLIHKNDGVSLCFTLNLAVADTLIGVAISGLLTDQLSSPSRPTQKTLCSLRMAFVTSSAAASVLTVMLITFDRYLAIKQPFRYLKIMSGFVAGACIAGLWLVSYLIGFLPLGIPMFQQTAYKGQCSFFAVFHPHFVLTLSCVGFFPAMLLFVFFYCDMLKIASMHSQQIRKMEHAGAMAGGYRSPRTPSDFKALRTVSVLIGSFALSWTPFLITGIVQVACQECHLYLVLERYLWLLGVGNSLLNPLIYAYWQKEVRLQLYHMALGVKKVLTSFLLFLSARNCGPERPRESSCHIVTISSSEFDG
The assay can be described thus: Agonist activity at human GPR119 receptor expressed in CHO-K1 cells assessed as cAMP accumulation after 30 mins by HTRF assay relative to AR231453. It is filed as functional, cell-based. (In general: Changes in cAMP serve as a functional read-out for many G protein-coupled receptors.)

In assay [2] the target is T2, Glucose-dependent insulinotropic receptor (Mus musculus, UniProt Q7TQP3).
T2 sequence (Q7TQP3 whole entry): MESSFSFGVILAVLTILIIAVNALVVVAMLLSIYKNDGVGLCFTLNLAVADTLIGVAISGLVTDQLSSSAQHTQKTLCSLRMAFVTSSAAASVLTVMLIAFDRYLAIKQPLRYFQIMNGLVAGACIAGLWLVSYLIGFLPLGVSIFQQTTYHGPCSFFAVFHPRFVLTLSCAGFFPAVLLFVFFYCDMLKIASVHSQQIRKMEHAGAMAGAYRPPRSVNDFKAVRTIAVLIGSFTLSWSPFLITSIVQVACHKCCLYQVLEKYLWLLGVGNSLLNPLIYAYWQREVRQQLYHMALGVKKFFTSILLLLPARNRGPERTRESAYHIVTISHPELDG
The assay can be described thus: Agonist activity at mouse GPR119 receptor expressed in CHO-K1 cells assessed as cAMP accumulation after 30 mins by HTRF assay. It is filed as functional, cell-based.

Assay [3] concerns the target T3, Glucose-dependent insulinotropic receptor (Homo sapiens, UniProt Q8TDV5).
T3 sequence (Q8TDV5 whole entry): T1 sequence (whole entry)
The assay can be described thus: Agonist activity at human GPR119 receptor expressed in CHO-K1 cells assessed as cAMP accumulation after 30 mins by HTRF assay. It is filed as functional, cell-based.

Assay [4] concerns the target T4, Glucose-dependent insulinotropic receptor (Mus musculus) (UniProt Q7TQP3).
T4 sequence (whole entry): T2 sequence (Q7TQP3 whole entry)
The assay is described as follows: Agonist activity at mouse GPR119 receptor expressed in CHO-K1 cells assessed as cAMP accumulation after 30 mins by HTRF assay relative to AR231453. It is filed as functional, cell-based.

The subject of assay [5] is Mus musculus. The assay can be described thus: Antidiabetic activity in fasted C57BL/6j mouse assessed as decrease in glucose excursion at 3 mg/kg, po administered 30 mins prior to oral glucose-challenge measured after 120 mins by oral glucose tolerance test. It is filed as functional. Further details: scale not given: the % may be the effect or the level left.
Assay [6] deals with Mus musculus. The assay can be described thus: Antidiabetic activity in fasted C57BL/6j mouse assessed as increase in plasma GLP-1 level at 30 mg/kg, po after 30 mins by ELISA relative to control. It is filed as functional. Background: An ELISA detects its analyte on a solid surface through an enzyme-linked reagent.
The test system of assay [7] is Mus musculus. The assay is described as follows: Antidiabetic activity in po dosed fasted C57BL/6j mouse assessed as decrease in glucose excursion administered 30 mins prior to oral glucose-challenge by oral glucose tolerance test. It is filed as functional, organism-based.
Assay [8] concerns Mus musculus. The assay is described as follows: Antidiabetic activity in fasted C57BL/6j mouse assessed as decrease in glucose excursion at 10 mg/kg, po administered 30 mins prior to oral glucose-challenge measured after 120 mins by oral glucose tolerance test. Further details: scale not given: the % may be the effect or the level left. It is filed as functional.
Assay [9] has as its system Mus musculus. The assay is described as follows: Antidiabetic activity in fasted C57BL/6j mouse assessed as decrease in glucose excursion at 10 mg/kg, po administered 30 mins prior to subcutaneous glucose-challenge after 120 mins by subcutaneous glucose tolerance test. It is filed as functional. Also noted: scale not given: the % may be the effect or the level left.
Assay [10] concerns the target T1, Glucose-dependent insulinotropic receptor (Homo sapiens). The assay is described as follows: Agonist activity at human GPR119 receptor expressed in CHO-K1 cells assessed as cAMP accumulation at 10 uM after 30 mins by HTRF assay. It is filed as functional, cell-based.
Assay [11] shares this target. The assay is described as follows: Agonist activity at human GPR119 receptor expressed in CHO-K1 cells assessed as cAMP accumulation at 1 uM after 30 mins by HTRF assay. It is filed as functional, cell-based.

As for `CC(C)(C)OC(=O)N1CCC(CCCNc2ccc3c(c2)CCC3=O)CC1`, the Emax (usually the size of the effect at its maximum, as opposed to the concentration needed) in [1] worked out at 85%; in assay [4], 105%. Further, the figures for the EC50 in assay [2] and in assay [3] were 87 nM and 86 nM, respectively.

Turning to `CC(C)(C)OC(=O)N1CCC(CCCNc2ccc3c(c2)OCCS3(=O)=O)CC1`, the Emax in assay [1] is 81%. In assay [3], the EC50 (commonly the concentration that produces a half-maximal response) worked out at 511 nM.

In the case of `CCc1cnc(N2CCC(CCCNc3ccc4c(c3)C(=O)CC4)CC2)nc1`, the Activity with Mus musculus [5] is 29%; in the assay on Mus musculus [7], “Dose-dependent effect”; with Mus musculus [8], 38%; in the assay on Mus musculus [9] it was 32%. Moreover, the Emax is 113% in [1] and 110% in assay [4]. The “fold change (FC)” value with Mus musculus [6] was over 2. The 50% effective concentration (EC50) in assay [2] is 167 nM; in assay [3] it was 51 nM.

Turning to `CC(C)(C)OC(=O)N1CCC(CCCNc2ccc3c(c2)C(=O)CC3)CC1`, the maximum response (Emax) stood at 98% in assay [1] and 110% in assay [4]. In addition, the half-maximal effective concentration (EC50) worked out at 123 nM in assay [2] and 46 nM in [3].

Consider `CC(C)(C)OC(=O)N1CCC(CCCNc2ccc3c(c2)CCS3(=O)=O)CC1`, for which the Emax in assay [1] worked out at 80%; in assay [4], 83%. For the same compound, the EC50 came out at 224 nM in assay [2] and 270 nM in [3].

`CC(C)(C)OC(=O)N1CCC(CCCNc2ccc3c(c2)CCCCC3=O)CC1`: the Emax in assay [1] was 38%. Also, the EC50 in assay [3] was 770 nM.

`CN(CCNc1ccc2c(c1)CCS2(=O)=O)C1CCN(C(=O)OC(C)(C)C)CC1`: in assay [10], the Activity stood at 10%. Also, the maximum response (Emax) in assay [1] was 10%.

Consider `CC(C)(C)OC(=O)N1CCC(CCCNc2ccc3c(c2)C(=O)CO3)CC1`, for which the maximal response (Emax) turned out to be 95% in assay [1] and 116% in [4]. For the same compound, the EC50 in assay [2] stood at 262 nM; in assay [3], 88 nM.

Take `CC(C)(C)OC(=O)N1CCC(CCCC(=O)Nc2ccc3c(c2)CCS3(=O)=O)CC1`: in assay [1], the maximal effect (Emax) worked out at 56%. For the same compound, the EC50 in assay [3] came out at 2610 nM.

For `CC(C)(C)OC(=O)N1CCC(CCCOc2ccc3c(c2)CCS3(=O)=O)CC1`, the Emax in assay [1] came to 84%. Besides, the EC50 in assay [3] worked out at 736 nM.

Consider `CC(C)(C)OC(=O)N1CCC(CCCNc2ccc3c(c2)NNS3(=O)=O)CC1`, for which the Emax was 99% in assay [1] and 95% in [4]. Further, the EC50 in assay [2] was determined as 331 nM; in assay [3], 268 nM.

Regarding `CC(C)(C)OC(=O)N1CCC(CCCNc2ccc3c(c2)OCC3=O)CC1`, the Emax in [1] turned out to be 94%; in assay [4], 108%. The results for the EC50 in [2] and in [3] were 66 nM and 52 nM, respectively.

With `CC(C)c1nsc(N2CCC(CCCNc3ccc4c(c3)OCC4=O)CC2)n1`, the Emax in assay [1] was found to be 10%; in assay [4], 93%. The EC50 turned out to be 812 nM in assay [2] and 121 nM in assay [3].

On to `COc1cnc(N2CCC(CCCNc3ccc4c(c3)OCC4=O)CC2)nc1`, for which the Emax was found to be 101% in [1] and 106% in assay [4]. The EC50 amounted to 60 nM in [2] and 115 nM in assay [3].

Consider `CC(C)(C)OC(=O)N1CCC(CCCNc2ccc3c(c2)S(=O)(=O)CC3)CC1`, for which the Emax in assay [1] is 25%. In addition, the concentration for a half-maximal effect (EC50) in [3] was 1030 nM.

As for `CC(C)c1noc(N2CCC(CCCNc3ccc4c(c3)OCC4=O)CC2)n1`, the Emax in [1] was 94%. In addition, the EC50 in assay [3] amounted to 73 nM.

Take `CC(C)(C)OC(=O)N1CCC(CCCNc2ccc3c(c2)OCS3(=O)=O)CC1`: the figures for the Emax in assay [1] and in assay [4] were 93% and 105%, respectively. Moreover, the EC50 in [2] is 266 nM; in assay [3], 254 nM.

Consider `COC(=O)c1cnc(N2CCC(CCCNc3ccc4c(c3)OCC4=O)CC2)nc1`, for which the maximum response (Emax) in assay [1] was 85%; in assay [4], 67%. The results for the EC50 in [2] and in assay [3] were 139 nM and 149 nM, respectively.

For `CC(C)(C)OC(=O)N1CCC(CCCNc2ccc3c(c2)C(=O)CCO3)CC1`, the Emax came to 100% in assay [1] and 108% in assay [4]. The EC50 came out at 351 nM in assay [2] and 272 nM in [3].

Turning to `CC(C)c1nnc(N2CCC(CCCNc3ccc4c(c3)OCC4=O)CC2)o1`, the maximal effect (Emax) turned out to be 85% in assay [1] and 88% in assay [4]. Besides, the concentration giving a half-maximal response (EC50) in assay [2] is 1020 nM; in [3], 704 nM.

As for `CC(C)(C)OC(=O)N1CCC(CCCNc2ccc3c(c2)C(=O)NC3)CC1`, the Emax came to 89% in assay [1] and 97% in assay [4]. Moreover, the half-maximal effective concentration (EC50) in assay [2] came out at 892 nM; in [3], 734 nM.

For the compound `CC(C)c1noc(N2CCC(CCCNc3ccc4c(c3)C(=O)CC4)CC2)n1`, the results for the Emax in assay [1] and in assay [4] were 110% and 113%, respectively. Further, the values for the EC50 in [2] and in [3] were 158 nM and 58 nM, respectively.

`CC(C)(C)OC(=O)N1CCC(CCCNc2ccc3c(c2)CNC3=O)CC1`: the Emax in assay [1] was 91%; in assay [4] it was 102%. Besides, the values for the EC50 in assay [2] and in assay [3] were 515 nM and 550 nM, respectively.

In the case of `CC(C)(C)OC(=O)N1CCC(OCCNc2ccc3c(c2)CCS3(=O)=O)CC1`, in assay [11], the Activity worked out at 33%. Besides, the Emax in assay [1] is 33%.

For the compound `CC(C)(C)OC(=O)N1CCC(CCCCNc2ccc3c(c2)CCS3(=O)=O)CC1`, the Emax in assay [1] amounted to 62%. Also, the EC50 in assay [3] came to 210 nM.

On to `CC(C)c1nc(N2CCC(CCCNc3ccc4c(c3)OCC4=O)CC2)no1`, for which the maximal response (Emax) in [1] turned out to be 91%. Moreover, the EC50 in assay [3] amounted to 161 nM.

As to `CC(C)(C)OC(=O)N1CCC(CCCCCNc2ccc3c(c2)CCS3(=O)=O)CC1`, the Emax in assay [1] came to 65%. Moreover, in assay [3], the EC50 amounted to 145 nM.

On to `CCc1cnc(N2CCC(CCCNc3ccc4c(c3)OCC4=O)CC2)nc1`, for which the Emax in assay [1] is 115%; in assay [4], 98%. Besides, the results for the EC50 in assay [2] and in [3] were 159 nM and 117 nM, respectively.
